Values quoted from earlier work in patent US5858994A, “Carbohydrate conjugates as inhibitors of cell adhesion” (priority 1994, dated 1999).

System: selectin receptors
Conditions: compared with sialyl-Lewis X; cited from earlier work

## CC(=O)N[C@@H]1[C@@H](O[C@@H]2O[C@H](CO)[C@H](O)[C@H](O[C@]3(C(=O)O)C[C@H](O)[C@@H](NC(C)=O)[C@H]([C@H](O)[C@H](O)CO)O3)[C@H]2O)[C@H](O[C@@H]2O[C@@H](C)[C@@H](O)[C@@H](O)[C@@H]2O)[C@@H](CO)O[C@H]1O [sialyl-Lewis A]
  binding to selectin receptors relative to the X type: comparable affinity
